Assay results taken from PubChem BioAssay (NCI).
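Five concentrations, 48 hours, 96-well plates. Here, GI50 denotes the concentration required for 50% inhibition of growth. At the TGI there is no net growth.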

Legend:
Assay in all cases: NCI tumour cell line growth inhibition, 48 h
SW-620 colon = test system: SW-620 colon
SN12C renal = test system: SN12C renal
NCI-H522 lung = test system: NCI-H522 lung
HL-60(TB) leukemia = test system: HL-60(TB) leukemia
CCRF-CEM leukemia = test system: CCRF-CEM leukemia
HCC-2998 colon = test system: HCC-2998 colon
A498 renal = test system: A498 renal
OVCAR-3 ovarian = test system: OVCAR-3 ovarian
PC-3 prostate = test system: PC-3 prostate
T-47D breast = test system: T-47D breast

| Compound | TGI (SW-620 colon) [µM] | TGI (SN12C renal) [µM] | TGI (NCI-H522 lung) [µM] | TGI (HL-60(TB) leukemia) [µM] | TGI (CCRF-CEM leukemia) [µM] | TGI (HCC-2998 colon) [µM] | TGI (A498 renal) [µM] | TGI (OVCAR-3 ovarian) [µM] | TGI (PC-3 prostate) [µM] | TGI (T-47D breast) [µM] | GI50 (PC-3 prostate) [µM] | GI50 (SN12C renal) [µM] | GI50 (HL-60(TB) leukemia) [µM] | GI50 (CCRF-CEM leukemia) [µM] | GI50 (HCC-2998 colon) [µM] | GI50 (A498 renal) [µM] | GI50 (OVCAR-3 ovarian) [µM] |
| --- | --- | --- | --- | --- | --- | --- | --- | --- | --- | --- | --- | --- | --- | --- | --- | --- | --- |
| C[N+](C)=c1ccc2nc3c(ccc4ccccc43)oc-2c1 | 10.5 | 31.8 | 8.07 | 6.32 | 8.53 | 37.7 | 32.6 | 14 |  |  |  |  |  |  |  |  |  |
| Cc1ccc(S(=O)(=O)NC(=O)NCCc2ccc(O)c(O)c2)cc1 | > 100 |  | > 100 | > 100 |  | > 100 | > 100 | > 100 | > 100 |  |  |  |  |  |  |  |  |
| C[N+](C)(C)CCOC(=O)/C=C/c1cnc[nH]1 | > 500 | > 500 | > 500 | > 500 | > 500 | > 500 | > 500 | > 500 |  |  |  |  |  |  |  |  |  |
| N=S(=O)(c1ccccc1)c1ccccc1 | > 100 | > 100 | > 100 | > 100 | > 100 | > 100 | > 100 | > 100 |  |  |  |  |  |  |  |  |  |
| Cc1nc(N)sc1C(=O)Nc1ncn[nH]1 | > 100 | > 100 | > 100 | 49.9 |  | > 100 |  | > 100 | > 100 | > 100 |  |  |  |  |  |  |  |
| Cn1c(=O)c2c(nc3n2CCC(=O)N3CCCCl)n(C)c1=O | > 100 | > 100 |  | > 100 | > 100 | > 100 | > 100 | > 100 | > 100 | > 100 |  |  |  |  |  |  |  |
| O=C(OCC1CCCN2CCCCC12)c1cccnc1 (configuration not stated) | > 100 | > 100 |  | > 100 | > 100 | > 100 | > 100 |  | > 100 | > 100 |  |  |  |  |  |  |  |
| C[C@@H](NC(=O)[C@@H]1C[C@]1(C)CO)c1cccc2ccccc12 | > 100 | > 100 |  |  | > 100 | > 100 | > 100 | > 100 | > 100 | > 100 |  |  |  |  |  |  |  |
| Brc1c2nc3ccccc3nc2n2ccc3ccccc3c12 | > 100 | > 100 | > 100 | > 100 | > 100 | > 100 |  | > 100 |  |  |  |  |  |  |  |  |  |
| CC1(C)Oc2ccc3c(=O)cc(-c4cccs4)oc3c2C1C(=O)O (configuration not stated) |  | > 100 | > 100 | > 100 | > 100 | > 100 | > 100 | > 100 | > 100 | > 100 |  |  |  |  |  |  |  |
| Nc1ccc2nc(Nc3ccc(Cl)c(Cl)c3)cnc2c1 | 33.7 | 33 | 21.6 | 31.6 | 9.57 | 29.8 |  | 36.7 |  |  |  |  |  |  |  |  |  |
| Nc1nc(Nc2ccc(Cl)cc2)sc1C(=O)c1c[nH]c2ccccc12 | > 100 | 29 |  | 82.8 | > 100 | 24.1 | 23.3 | 36 | 27.9 | 92.3 |  |  |  |  |  |  |  |
| N=c1n(CC(=O)NC23CC4CC(CC(C4)C2)C3)c2ccccc2n1CC(=O)NC12CC3CC(CC(C3)C1)C2 | 3 | 3.45 | 3.3 | 4.82 | 6.23 | 2.65 | 3.15 | 3.32 |  |  |  |  |  |  |  |  |  |
| CCCCOc1c(C(=O)O)cc(Br)cc1C(=O)O | > 100 | > 100 | > 100 |  |  | > 100 | > 100 | > 100 | > 100 | > 100 |  |  |  |  |  |  |  |
| CCCCC(=C=C(C)CO)C1CCCN1C(=O)OC(C)(C)C (configuration not stated) | 89.8 | 31.5 | 29 | 32.5 | 33.2 | 20.3 |  | 31.8 | 38.1 | > 100 |  |  |  |  |  |  |  |
| Cc1ccc(/C(O)=C/c2nc3cccnc3[nH]c2=O)cc1 |  | > 100 | > 100 | > 100 | > 100 | > 100 | > 100 | > 100 | > 100 | > 100 |  |  |  |  |  |  |  |
| C=C1C2C[C@@H]3OC4CC5O[C@]6(CC5OC4C(C)C3OC(=O)CC3CC[C@@H]4OC5C7OC8C[C@](CCC9CC(=C)[C@H](CCC(C[C@H]1C)O2)O9)(OC7C4O3)O[C@@H]85)C[C@@H]1O[C@@]2(CC(C)[C@@H]3OC(CC(=O)CCO)C(O)C[C@@H]3O2)CC(C)[C@@H]1O6 (some centres not stated) | 1.32 | 0.206 | < 0.001 |  | 1.8 | < 0.001 |  | < 0.001 |  |  |  |  |  |  |  |  |  |
| C/C=C/c1cc2c(c(=O)o1)C(=O)[C@@H](O)[C@H](C)O2 | 22.9 | 29.2 | 20.4 | 54.4 | 53.9 | 24 | 16.9 | 32.8 |  |  |  |  |  |  |  |  |  |
| CC(C)NCC(O)c1ccc(O)c2ncccc12 (configuration not stated) | > 100 | > 100 | > 100 | > 100 |  | > 100 | > 100 | 55 | > 100 | > 100 |  |  |  |  |  |  |  |
| O=C(CNc1nccs1)Nn1cnc2ccc(S(=O)(=O)Nc3nccs3)cc2c1=O | > 100 | > 100 | > 100 | > 100 | > 100 | > 100 |  | > 100 | > 100 |  |  |  |  |  |  |  |  |
| C=CC(C)(C)C1(CC(OC)OC)C(=O)N(C)c2ccccc21 (configuration not stated) | > 25 | > 25 |  | > 25 | > 25 | > 25 | > 25 | > 25 | > 25 | > 25 |  |  |  |  |  |  |  |
| CO[C@H]1CC[C@]2(C)C3=CC[C@@]4(C)C(CC[C@@H]4C(C)CC[C@@H](C)C(C)C)C(=CCC2C1)O3 (some centres not stated) | > 25 | > 25 | > 25 | > 25 | > 25 | > 25 | > 25 | > 25 |  |  |  |  |  |  |  |  |  |
| Fc1ccc2[nH]cc(-c3nc(-c4c[nH]c5ccncc45)cs3)c2c1 |  | 2.92 |  | 4.58 | 4.65 | 3.49 | 3.43 | 3.3 | 2.99 |  | 1.47 | 1.52 | 2.07 | 1.89 | 1.92 | 1.98 | 1.8 |
